Assays:
Vero E6 [1] = test: drug sensitivity score (DSS) for viability; higher = more toxic; extreme values may be limits of the assay; settings: 72 h
Caco-2 [2] = test: as above; settings: 72 h
Calu-3 [3] = test: as above; settings: 72 h
HepG2 [4] = test: as above; settings: 72 h
U2OS [5] = test: as above; settings: 72 h
A549-ACE2 = test: drug-induced phospholipidosis relative to tamoxifen; higher = more phospholipidosis
Vero E6 [6] = test: relative viability EC50 (midpoint between 100% and the lowest measured viability); higher = less toxic; settings: 72 h
Caco-2 [7] = test: as above; settings: 72 h
Calu-3 [8] = test: as above; settings: 72 h
U2OS [9] = test: as above; settings: 72 h
[10] = test system: A549-ACE2 infected with SARS-CoV-2; test: SARS-CoV-2 infection rate relative to DMSO; higher = more infection; settings: 24 h
[11] = test system: A549-ACE2 infected with SARS-CoV-2; test: cell count relative to DMSO; higher = less toxic; settings: 24 h
[12] = test system: A549-ACE2 infected with SARS-CoV-2; test: morphology score (similarity to uninfected cells); higher = more like uninfected cells; settings: 24 h
Vero E6 [13] = test: cell viability relative to DMSO; higher = less toxic; settings: 72 h
Caco-2 [14] = test: as above; settings: 72 h
Calu-3 [15] = test: as above; settings: 72 h
HepG2 [16] = test: as above; settings: 72 h
U2OS [17] = test: as above; settings: 72 h
HepG2 [18] = test: relative viability EC50 (midpoint between 100% and the lowest measured viability); higher = less toxic; settings: 72 h

Clc1cc(Cl)c(OCC#CI)cc1Cl [haloprogin]
Settings	drug sensitivity score	relative viability EC50 [µM]
Caco-2 [2]	0	–
Caco-2 [7]	–	> 10
Calu-3 [3]	0	–
Calu-3 [8]	–	> 10
HepG2 [4]	3.4	–
U2OS [5]	3.6	–
U2OS [9]	–	2.42
Vero E6 [1]	0	–
Vero E6 [6]	–	> 10

drug-induced phospholipidosis [%], A549-ACE2
Settings	0.3 µM	0.833333 µM	3.33333 µM	6.66667 µM	10 µM
24 h	4.53	2.7	5.33	17.8	23.3
48 h	-1.51	-0.64	1.31	14.4	7.74
72 h	5.04	-1.02	-0.916	2.19	-6.87

Settings	SARS-CoV-2 infection rate, [10] [%]	cell count, [11] [%]	cell viability, Caco-2 [14] [%]	cell viability, Calu-3 [15] [%]	cell viability, HepG2 [16] [%]	cell viability, U2OS [17] [%]	cell viability, Vero E6 [13] [%]	morphology score, [12]
1 nM	–	–	109	84	91.8	95.6	95.3	–
10 nM	–	–	90.2	88.5	104	95.2	96.9	–
100 nM	–	–	95.1	99.9	116	97.5	90.6	–
0.3 µM	97	100	–	–	–	–	–	0.18
1000 nM	–	–	130	95.9	91	95.2	101	–
3 µM	83	100	–	–	–	–	–	0.44
10 µM	71	79	–	–	–	–	–	0.28
10000 nM	–	–	97	110	59.5	47.1	93.9	–
30 µM	15	15	–	–	–	–	–	0.1

Cc1ccc(NC(=O)c2ccc(CN3CCN(C)CC3)cc2)cc1Nc1nc(-c2cccnc2)cs1 [masitinib]
Settings	drug sensitivity score	relative viability EC50 [µM]
Caco-2 [2]	1.6	–
Calu-3 [3]	1.2	–
Calu-3 [8]	–	> 10
HepG2 [4]	2.9	–
HepG2 [18]	–	3.29
U2OS [5]	0	–
U2OS [9]	–	> 10
Vero E6 [1]	0.1	–
Vero E6 [6]	–	> 10

A549-ACE2, 0.3 µM
Settings	drug-induced phospholipidosis [%]
24 h	-0.73
48 h	0.9
72 h	2.47

Settings	SARS-CoV-2 infection rate, [10] [%]	cell count, [11] [%]	cell viability, Caco-2 [14] [%]	cell viability, Calu-3 [15] [%]	cell viability, HepG2 [16] [%]	cell viability, U2OS [17] [%]	cell viability, Vero E6 [13] [%]	morphology score, [12]
1 nM	–	–	104	107	105	106	105	–
10 nM	–	–	99.5	88	103	101	102	–
100 nM	–	–	99.1	97.4	99.6	104	101	–
0.3 µM	98	88	–	–	–	–	–	0.14
1000 nM	–	–	97.3	97.9	101	98	98	–
10000 nM	–	–	72	75.1	43.9	93.2	88.9	–

CO[C@H]1C[C@H](O[C@@H]2/C(C)=C/C[C@@H]3C[C@@H](C[C@]4(CC[C@H](C)[C@@H](C5CCCCC5)O4)O3)OC(=O)[C@@H]3C=C(C)/C(=N/O)[C@H]4OC/C(=C\C=C\[C@@H]2C)[C@]43O)O[C@@H](C)[C@@H]1O [selamectin]
Settings	drug sensitivity score	relative viability EC50 [µM]
Caco-2 [2]	2.5	–
Caco-2 [7]	–	> 10
Calu-3 [3]	0	–
Calu-3 [8]	–	> 10
HepG2 [4]	0.1	–
HepG2 [18]	–	> 10
U2OS [5]	0	–
U2OS [9]	–	> 10
Vero E6 [1]	0	–
Vero E6 [6]	–	> 10

Settings	SARS-CoV-2 infection rate, [10] [%]	cell count, [11] [%]	cell viability, Caco-2 [14] [%]	cell viability, Calu-3 [15] [%]	cell viability, HepG2 [16] [%]	cell viability, U2OS [17] [%]	cell viability, Vero E6 [13] [%]	morphology score, [12]
1 nM	–	–	112	101	113	103	104	–
10 nM	–	–	119	106	120	98	104	–
100 nM	–	–	105	96.2	117	103	104	–
0.3 µM	103	96	–	–	–	–	–	-0.14
1000 nM	–	–	79.9	104	121	98.8	107	–
3 µM	79	105	–	–	–	–	–	0.43
10 µM	48	93	–	–	–	–	–	0.75
10000 nM	–	–	86.5	91.2	84.1	90.4	86.7	–
30 µM	15	111	–	–	–	–	–	0.7

O=C(CCCN1CCC2(CC1)C(=O)NCN2c1ccccc1)c1ccc(F)cc1 [spiperone]
Settings	drug sensitivity score	relative viability EC50 [µM]
Caco-2 [2]	1.3	–
Calu-3 [3]	0.8	–
HepG2 [4]	3.2	–
U2OS [5]	0	–
U2OS [9]	–	> 10
Vero E6 [1]	0	–
Vero E6 [6]	–	> 10

drug-induced phospholipidosis [%], A549-ACE2
Settings	0.3 µM	0.833333 µM	3.33333 µM	6.66667 µM	10 µM	30 µM
24 h	-1.11	-1.19	0.56	7.38	19.1	21
48 h	1.78	-0.92	2.83	6.18	13.4	–
72 h	1.57	-0.0916	2.59	6.4	14.9	–

Settings	SARS-CoV-2 infection rate, [10] [%]	cell count, [11] [%]	cell viability, Caco-2 [14] [%]	cell viability, Calu-3 [15] [%]	cell viability, HepG2 [16] [%]	cell viability, U2OS [17] [%]	cell viability, Vero E6 [13] [%]	morphology score, [12]
1 nM	–	–	99.3	105	91.6	100	99.8	–
10 nM	–	–	92.7	84.1	108	96.6	103	–
100 nM	–	–	96.2	108	98.7	101	96.1	–
0.3 µM	102	99	–	–	–	–	–	-0.22
1000 nM	–	–	99.3	103	91.1	98.5	95.8	–
3 µM	86	114	–	–	–	–	–	0.32
10 µM	31	97	–	–	–	–	–	0.19
10000 nM	–	–	71.9	74.1	62.5	94.6	98.3	–
30 µM	35	77	–	–	–	–	–	0.03
